Laboratory results taken from patent publication US20110152340A1, “Methods for Identifying Subjects With an Increased Likelihood of Responding to DPP-IV Inhibitors” (BRISTOL-MYERS SQUIBB COMPANY, priority 2008, published 2011).

Tests used:
Type in all cases: in vivo, human
[1] = Saxagliptin clinical trials: fasting glucose response by GRINL1A genotype
Description: (§1) SNPs from the genome-wide SNP panel were tested for association with response to DPP-IV inhibitors by two analytical methodologies. In one method, SNPs were identified with significant differences in mean HBA1C response among individuals with different genotypes on treatment, taking into account covariates such as demographic differences with an analysis of covariance (ANCOVA) statistical model. SNPs with consistent in their effect on HBA1C in both trials were considered for further evaluation. In a second method, SNPs were examined for association with response cluster. SNPs consistently associated with response cluster in both trials were further evaluated for influence on fasting glycosylated hemoglobin or glucose levels using analysis of covariance.
(§2) Sample: Subjects in BMS clinical trials, (Trial A and Trial B) receiving DPP-IV inhibitor (saxigliptin) therapy. All subjects have diabetes and the study group was mixed with respect to age, race and duration of diabetes. Measures: Single nucleotide polymorphisms (SNPs) in a genome-wide panel were genotyped on all subjects essentially as described in Example 1. […] The SNPs that were genotyped likely represent a sample of the polymorphic variation in each gene and are not exhaustive with regard to coverage of the total genetic variation that may be present in each gene. […] Statistical Analyses: Initial analysis to determine SNP association with cluster membership was performed using the genotypic test (2-degrees of freedom) implemented in the program PLINK (Purcell et al., 2007 Amer. Journ. Hum Genet. 81: 559-75. PLINK: a tool set for whole-genome association and population-based linkage analyses). […] Follow-up analysis was performed employing a statistical package, SPSS v.14 (SPSS Inc. Chicago, Ill.). […] SNPs that were associated with differential genotype response were identified by a significant difference in HBA1C response (P<=0.05) in two independent trials. Analysis was performed employing a statistical package, SAS v. […] Differences in means between clusters for HbA1c were evaluated using Kruskal-Wallis test.

[2] = Saxagliptin clinical trials: AUC glucose response by GRINL1A genotype
Description: as §1, §2

[3] = Saxagliptin clinical trials (Trial A and Trial B): HbA1c response by SNP genotype
Description: The association between the SNPs and the response to saxagliptin was evaluated in two ways. SNPs from the genome-wide SNP panel were tested for association with response to DPP-IV inhibitors by two analytical methodologies. In one method, SNPs were identified with significant differences in mean HBA1C response among individuals with different genotypes on treatment, taking into account covariates such as demographic differences with an analysis of covariance (ANCOVA) statistical model. SNPs with consistent in their effect on HBA1C in both trials were considered for further evaluation. In a second method, SNPs were examined for association with response cluster. SNPs consistently associated with response cluster in both trials were further evaluated for influence on fasting glycosylated hemoglobin or glucose levels using analysis of covariance. Sample: Subjects in BMS clinical trials, (Trial A and Trial B) receiving DPP-IV inhibitor ([…]) therapy. All subjects have diabetes and the study group was mixed with respect to age, race and duration of diabetes. Measures: Single nucleotide polymorphisms (SNPs) in a genome-wide panel were genotyped on all subjects essentially as described in Example 1. […] The SNPs that were genotyped likely represent a sample of the polymorphic variation in each gene and are not exhaustive with regard to coverage of the total genetic variation that may be present in each gene. The SNP for which a statistical association to DPP-IV inhibitor-dependent metabolic abnormalities was confirmed is provided in Table III. Statistical Analyses: Initial analysis to determine SNP association with cluster membership was performed using the genotypic test (2-degrees of freedom) implemented in the program PLINK (Purcell et al., 2007 Amer. Journ. Hum […]: a tool set for whole-genome association and population-based linkage analyses). […] Follow-up analysis was performed employing a statistical package, SPSS v.14 (SPSS Inc. Chicago, Ill.). Some SNP associations were also discovered or confirmed using an ANCOVA modeling approach as described below. SNPs that were associated with differential genotype response were identified by a significant difference in HBA1C response (P<=0.05) in two independent trials. Analysis was performed employing a statistical package, SAS v. 8.2 (SAS Institute Inc., Cary, N.C.). […] Baseline glycosylated hemoglobin (HbA1c) and change in HbA1c after twelve weeks (study A) or twenty-four weeks (study B) of DPP-IV inhibitor therapy for each individual were used in this analysis. […] This process was iteratively repeated until all individuals were clustered into groups, either non-responders (poor response to saxagliptin therapy) or super responders (response to saxagliptin therapy). The two-step clustering routine implemented in SPSS version 12 (Chicago, Ill., US) was used. Differences in means between clusters for HbA1c were evaluated using Kruskal-Wallis test. […] The ANCOVA model provides an estimate of mean final HbA1C after treatment for different genotypes, taking into account clinical and demographic information. […] The SNP genotype was included in the model and the difference in HbA1c was estimated between wildtype homozygous and heterozygous or rare homozygous individuals. SNPs that were associated with differential genotype response were identified by a significant (P<=0.05) difference (in the same direction) in HBA1C response between genotypes in two independent trials. Analysis was performed using contrast estimates with the GLM procedure in SAS v. 8.2 (SAS Institute Inc., Cary, N.C.).

## N#C[C@@H]1C[C@@H]2C[C@@H]2N1C(=O)[C@@H](N)C12CC3CC(CC(O)(C3)C1)C2 [saxagliptin, (1S,3S,55)-2-[(2S)-2-amino-2-(3-hydroxytricyclo[3.3.1.1^3,7]dec-1-yl)-1-oxoethyl]-2-azabicyclo[3.1.0]hexane-3-carbonitrile]
[1]; FIG. 10, GRINL1A position 87,992, reference carriers vs SNP carriers
  mean change in fasting glucose levels: higher reduction in mean fasting glucose levels
[1]; subjects homozygous for the reference allele (T/T) at position 87,992 of SEQ ID NO: 1 (GRINL1A), compared to carriers of the variant allele
  mean change in fasting glucose levels following saxagliptin treatment: significant reduction in the mean fasting glucose levels
[1]; variant SNP carriers (C/T or C/C) at position 87,992 of SEQ ID NO: 1 (GRINL1A), compared with matched placebo controls
  mean change in fasting glucose levels following saxagliptin treatment: little change in the fasting glucose levels
[2]; FIG. 11, GRINL1A position 87,992, reference carriers vs SNP carriers
  mean change in AUC Glucose levels: higher reduction in AUC Glucose levels
[2]; GRINL1A variant SNP carriers
  mean change in AUC glucose levels following saxagliptin treatment: little change in the AUC glucose levels
[2]; those homozygous for the GRINL1A reference allele
  mean change in AUC glucose levels following saxagliptin treatment: significant reduction in the AUC glucose levels
[3]; FIG. 9, GRINL1A position 87,992, reference carriers vs SNP variant carriers
  mean change in HbA1c levels: higher reduction in mean glycosylated hemoglobin
[3]; FIG. 12, HSD11B1 position 34,403, reference carriers vs SNP carriers
  mean change in HbA1c levels: higher reduction in mean glycosylated hemoglobin
[3]; FIG. 13, CHST10 position 24,707, reference carriers vs SNP carriers
  mean change in HbA1c levels: higher reduction in mean glycosylated hemoglobin
[3]; FIG. 14, CHST10 position 34,078, reference carriers vs SNP carriers
  mean change in HbA1c levels: higher reduction in mean glycosylated hemoglobin
[3]; FIG. 15, CHST10 position 35,799, reference carriers vs SNP carriers
  mean change in HbA1c levels: higher reduction in mean glycosylated hemoglobin
[3]; FIG. 16, CHST10 position 38,709, reference carriers vs SNP carriers
  mean change in HbA1c levels: higher reduction in mean glycosylated hemoglobin
[3]; FIG. 17, CHST10 position 38,947, reference carriers vs SNP carriers
  mean change in HbA1c levels: higher reduction in mean glycosylated hemoglobin
[3]; FIG. 18, CHST10 position 41,180, reference carriers vs SNP carriers
  mean change in HbA1c levels: higher reduction in mean glycosylated hemoglobin
[3]; Trial A and Trial B, variant SNP carriers at positions 24,707, 34,078, 35,799, 38,709, 38,947 or 41,180 of SEQ ID NO: 5 (CHST10), compared with reference allele homozygotes
  mean change in HbA1c levels following saxagliptin treatment: little change in HbA1c levels
[3]; homozygous reference allele (T/T) vs heterozygous (T/C) individuals at position 26,472 of SEQ ID NO: 63 or 64 (TEKT5), both trials
  mean HbA1C in response to therapy: lower mean HbA1C in response to therapy than heterozygous individuals
[3]; reference allele homozygotes at position 34,403 of SEQ ID NO: 3 or 4 (HSD11B1), compared to carriers of the variant allele
  mean change in HbA1c levels following saxagliptin treatment: greaterreduction in mean HbA1c levels
[3]; subjects homozygous for the reference allele (T/T) at position 87,992 of SEQ ID NO: 1 or 2 (GRINL1A)
  mean change in HbA1c levels following saxagliptin treatment: significant reduction in mean HbA1c levels
[3]; variant SNP carriers (C/T or C/C) at position 87,992 of SEQ ID NO: 1 or 2 (GRINL1A)
  mean change in HbA1c levels following saxagliptin treatment: little change in HbA1c levels
[3]; variant SNP carriers at position 34,403 of SEQ ID NO: 3 or 4 (HSD11B1)
  mean change in HbA1c levels following saxagliptin treatment: little change in HbA1c levels
